39 compounds from BindingDB's records for doi:10.7270/Q22V2DH9 (Nmmlsc, 2007) can be followed below.

Each structure is given as a SMILES string.

This assay concerns the target T1, N-formyl peptide receptor 2 (Homo sapiens, UniProt P25090).
T1 sequence (P25090 whole entry): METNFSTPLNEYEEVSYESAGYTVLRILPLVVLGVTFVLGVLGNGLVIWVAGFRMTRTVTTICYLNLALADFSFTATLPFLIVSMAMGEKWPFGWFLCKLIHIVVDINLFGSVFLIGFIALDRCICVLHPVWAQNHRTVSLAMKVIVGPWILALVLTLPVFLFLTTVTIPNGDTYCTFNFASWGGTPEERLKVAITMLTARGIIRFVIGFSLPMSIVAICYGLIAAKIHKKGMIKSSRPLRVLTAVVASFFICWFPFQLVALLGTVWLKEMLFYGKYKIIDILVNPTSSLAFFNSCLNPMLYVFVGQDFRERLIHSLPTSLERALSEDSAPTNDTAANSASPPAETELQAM
Briefly: FPRL1 fluorescent ligand binding inhibitors, dose response, selectivity assay for FPR1 ligand SAR project, cell-based, flow cytometry, Ki from IC50 (AID 723).

Take `O=C1C(=O)N(CCc2ccccc2)C(c2ccc(Cl)cc2)C1C(=O)c1cccs1` (centres undefined) [2-(4-chlorophenyl)-4-hydroxy-1-(2-phenylethyl)-3-(thiophene-2-carbonyl)-2H-pyrrol-5-one]: the concentration for half-maximal inhibition (IC50) was greater than 66.7 µM.

`COc1cccc(/C=C2/C(=O)NN(c3ccc(C)cc3)C2=O)c1` [(4Z)-4-[(3-methoxyphenyl)methylidene]-1-(4-methylphenyl)pyrazolidine-3,5-dione] showed an IC50 greater than 66.7 µM.

Compound `COc1ccc(C(=O)C2C(=O)C(=O)NC2c2ccc(OC)cc2OC)cc1` (centres undefined) [(4Z)-5-(2,4-dimethoxyphenyl)-4-[(4-methoxyphenyl)-oxidanyl-methylidene]pyrrolidine-2,3-dione] displayed an IC50 greater than 66.7 µM.

For the compound `COc1ccc(C2C(C(=O)c3ccco3)C(=O)C(=O)N2CCN2CCOCC2)c(OC)c1` (centres undefined) [5-(2,4-dimethoxyphenyl)-4-(furan-2-carbonyl)-3-hydroxy-1-(2-morpholinoethyl)-1H-pyrrol-2(5H)-one], the IC50 is greater than 66.7 µM.

For the compound `COc1ccc(C2C(C(=O)c3cccs3)C(=O)C(=O)N2CCN2CCOCC2)c(OC)c1` (centres undefined) [2-(2,4-dimethoxyphenyl)-1-(2-morpholin-4-ylethyl)-4-oxidanyl-3-thiophen-2-ylcarbonyl-2H-pyrrol-5-one], the IC50 was greater than 66.7 µM.

As for `COc1ccc(-c2c(C(F)(F)F)oc3cc(OC(=O)c4ccco4)ccc3c2=O)cc1OC` [2-furancarboxylic acid [3-(3,4-dimethoxyphenyl)-4-oxo-2-(trifluoromethyl)-1-benzopyran-7-yl] ester], the IC50 is greater than 66.7 µM.

The compound `COc1ccc(C2C(C(=O)c3ccco3)C(=O)C(=O)N2CCCN2CCOCC2)cc1OC` (centres undefined) [2-(3,4-dimethoxyphenyl)-3-(furan-2-carbonyl)-4-hydroxy-1-(3-morpholin-4-ylpropyl)-2H-pyrrol-5-one] displayed an IC50 greater than 66.7 µM.

Compound `Cc1ccc(N2C(=O)C(=O)C(C(=O)c3ccccc3)C2c2cccc(F)c2)cc1Br` (centres undefined) [(4Z)-1-(3-bromanyl-4-methyl-phenyl)-5-(3-fluorophenyl)-4-[oxidanyl(phenyl)methylidene]pyrrolidine-2,3-dione] displayed an IC50 greater than 66.7 µM.

Regarding `O=C1C(=O)N(CCCN2CCOCC2)C(c2cccnc2)C1C(=O)c1cc2ccccc2o1` (centres undefined) [3-(1-benzofuran-2-carbonyl)-4-hydroxy-1-(3-morpholin-4-ylpropyl)-2-pyridin-3-yl-2H-pyrrol-5-one], the IC50 is greater than 66.7 µM.

As to `COc1ccc(-c2c(C)[nH]n3c(=O)c4c(nc23)CCCC4)cc1`, the IC50 is greater than 66.7 µM.

As for `COc1cccc(-c2ccnc3[nH]n(-c4ccccc4)c(=O)c23)c1` [UNM000003608001], the IC50 was greater than 66.7 µM.

For the compound `CCCC(=O)N(Cc1ccco1)S(=O)(=O)c1cccc2cccnc12` [N-(2-furanylmethyl)-N-(8-quinolinylsulfonyl)butanamide], the IC50 is greater than 66.7 µM.

`COc1ccc(-c2c(C(F)(F)F)oc3c(CN4CCOCC4)c(O)ccc3c2=O)cc1OC` [3-(3,4-dimethoxyphenyl)-7-hydroxy-8-(4-morpholinylmethyl)-2-(trifluoromethyl)-1-benzopyran-4-one] yielded an IC50 greater than 66.7 µM.

The compound `O=C(Oc1ccc2c(=O)c(Oc3ccccc3Br)c(C(F)(F)F)oc2c1)c1cccs1` [2-thiophenecarboxylic acid [3-(2-bromophenoxy)-4-oxo-2-(trifluoromethyl)-1-benzopyran-7-yl] ester] had an IC50 greater than 66.7 µM.

`COc1ccc(C2C(C(=O)c3cc4ccccc4o3)C(=O)C(=O)N2CCN(C)C)cc1OC` (centres undefined) [3-(1-benzofuran-2-carbonyl)-2-(3,4-dimethoxyphenyl)-1-[2-(dimethylamino)ethyl]-4-hydroxy-2H-pyrrol-5-one] gave an IC50 greater than 66.7 µM.

In turn, `Cc1ccc(C(=O)C2C(=O)C(=O)N(c3nnc(C)s3)C2c2ccc(C(C)C)cc2)cc1` (centres undefined) [(4E)-4-[(4-methylphenyl)-oxidanyl-methylidene]-1-(5-methyl-1,3,4-thiadiazol-2-yl)-5-(4-propan-2-ylphenyl)pyrrolidine-2,3-dione] showed an IC50 greater than 66.7 µM.

Regarding `O=C(Oc1ccc2c(=O)c(-c3ccccc3Cl)c(C(F)(F)F)oc2c1)c1cccs1`, the IC50 was greater than 66.7 µM.

Consider `COc1ccc(C2C(C(=O)c3ccc(C)cc3)C(=O)C(=O)N2Cc2cccnc2)c(OC)c1` (centres undefined) [(4E)-5-(2,4-dimethoxyphenyl)-4-[(4-methylphenyl)-oxidanyl-methylidene]-1-(pyridin-3-ylmethyl)pyrrolidine-2,3-dione], for which the IC50 is greater than 66.7 µM.

`N#Cc1c(N=C(CC(=O)c2ccccc2)C(=O)O)sc2c1CCC2` [(Z)-2-[(3-cyano-5,6-dihydro-4H-cyclopenta[b]thiophen-2-yl)amino]-4-keto-4-phenyl-but-2-enoic acid] displayed an IC50 greater than 66.7 µM.

`O=C1CC(c2ccccc2C(F)(F)F)C2=C(CC(c3cccs3)CC2=O)N1` (centres undefined) [7-(2-thienyl)-4-[2-(trifluoromethyl)phenyl]-1,3,4,6,7,8-hexahydroquinoline-2,5-quinone] had an IC50 greater than 66.7 µM.

The compound `COCCCN1C(=O)C(=O)C(C(=O)c2ccccc2)C1c1ccc(O)c(OC)c1` (centres undefined) [(4E)-5-(3-methoxy-4-oxidanyl-phenyl)-1-(3-methoxypropyl)-4-[oxidanyl(phenyl)methylidene]pyrrolidine-2,3-dione] returned an IC50 greater than 66.7 µM.

`COc1ccc(OC)c(C2C(C(=O)c3ccccc3)C(=O)C(=O)N2c2ccc(C)c(Cl)c2)c1` (centres undefined) [(4E)-1-(3-chloranyl-4-methyl-phenyl)-5-(2,5-dimethoxyphenyl)-4-[oxidanyl(phenyl)methylidene]pyrrolidine-2,3-dione] displayed an IC50 greater than 66.7 µM.

In turn, `COCCN1C(=O)C(=O)C(C(=O)c2ccccc2)C1c1ccc(C(C)C)cc1` (centres undefined) [(4E)-1-(2-methoxyethyl)-4-[oxidanyl(phenyl)methylidene]-5-(4-propan-2-ylphenyl)pyrrolidine-2,3-dione] returned an IC50 greater than 66.7 µM.

Turning to `Cc1cccc(C)c1NC(=O)C(NC(=O)Cc1cccs1)c1ccccc1` (centres undefined) [N-(2,6-dimethylphenyl)-2-[(1-oxo-2-thiophen-2-ylethyl)amino]-2-phenylacetamide], the IC50 is greater than 66.7 µM.

`COc1ccc(C2C(C(=O)N3CCCC(C)C3)c3ccccc3C(=O)N2C)cc1` (centres undefined) [3-(4-methoxyphenyl)-2-methyl-4-(3-methylpiperidin-1-yl)carbonyl-3,4-dihydroisoquinolin-1-one] had an IC50 greater than 66.7 µM.

In the case of `Cc1sc2c(c1C)c(=O)n(Cc1ccccc1)c(=O)n2Cc1ccccc1F` [1-[(2-fluorophenyl)methyl]-5,6-dimethyl-3-(phenylmethyl)thieno[2,3-d]pyrimidine-2,4-dione], the IC50 is greater than 66.7 µM.

Take `COCCN1C(=O)C(=O)C(C(=O)c2ccccc2)C1c1cc(OC)ccc1OC` (centres undefined) [(4E)-5-(2,5-dimethoxyphenyl)-1-(2-methoxyethyl)-4-[oxidanyl(phenyl)methylidene]pyrrolidine-2,3-dione]: the IC50 was greater than 66.7 µM.

Compound `COCCCN1C(=O)C(=O)C(C(=O)c2ccccc2)C1c1ccc(C(C)C)cc1` (centres undefined) [(4E)-1-(3-methoxypropyl)-4-[oxidanyl(phenyl)methylidene]-5-(4-propan-2-ylphenyl)pyrrolidine-2,3-dione] displayed an IC50 greater than 66.7 µM.

`COc1ccc(-c2c(C(F)(F)F)oc3cc(OC(=O)c4cccnc4)ccc3c2=O)cc1OC` [3-pyridinecarboxylic acid [3-(3,4-dimethoxyphenyl)-4-oxo-2-(trifluoromethyl)-1-benzopyran-7-yl] ester] showed an IC50 greater than 66.7 µM.

On to `COc1ccc(C2C(C(=O)c3cccs3)C(=O)C(=O)N2CCCn2ccnc2)cc1` (centres undefined) [1-(3-imidazol-1-ylpropyl)-2-(4-methoxyphenyl)-4-oxidanyl-3-thiophen-2-ylcarbonyl-2H-pyrrol-5-one], for which the IC50 was greater than 66.7 µM.

Compound `O=C(O)C1CCCCC1C(=O)Nc1ccc(Br)cc1` (centres undefined) [2-[(4-bromoanilino)-oxomethyl]-1-cyclohexanecarboxylic acid] registered an IC50 greater than 66.7 µM.

`O=C1C(=O)N(CCCn2ccnc2)C(c2cccnc2)C1C(=O)c1ccco1` (centres undefined) [3-(furan-2-carbonyl)-4-hydroxy-1-(3-imidazol-1-ylpropyl)-2-pyridin-3-yl-2H-pyrrol-5-one] had an IC50 greater than 66.7 µM.

For the compound `CCCCCCN1C(=O)C(=O)C(C(=O)c2ccccc2)C1c1ccc(O)c(OC)c1` (centres undefined) [(4Z)-1-hexyl-5-(3-methoxy-4-oxidanyl-phenyl)-4-[oxidanyl(phenyl)methylidene]pyrrolidine-2,3-dione], the IC50 is greater than 66.7 µM.

In turn, `COc1ccc(C2C(C(=O)c3ccccc3)C(=O)C(=O)N2CCCn2ccnc2)c(OC)c1` (centres undefined) [(4E)-5-(2,4-dimethoxyphenyl)-1-(3-imidazol-1-ylpropyl)-4-[oxidanyl(phenyl)methylidene]pyrrolidine-2,3-dione] had an IC50 greater than 66.7 µM.

Consider `CC(C)c1ccc(C2C(C(=O)c3ccccc3)C(=O)C(=O)N2Cc2cccnc2)cc1` (centres undefined) [(4E)-4-[hydroxy(phenyl)methylene]-5-p-cumenyl-1-(3-pyridylmethyl)pyrrolidine-2,3-quinone], for which the IC50 is greater than 66.7 µM.

`CC(=O)C1C(=O)C(=O)N(CCc2c(C)[nH]c3ccccc23)C1c1cccc(F)c1` (centres undefined) yielded an IC50 greater than 66.7 µM.

The compound `COc1ccc(C2C(C(=O)c3ccccc3)C(=O)C(=O)N2c2cccc(Cl)c2)c(OC)c1` (centres undefined) [(4E)-1-(3-chlorophenyl)-5-(2,4-dimethoxyphenyl)-4-[hydroxy(phenyl)methylene]pyrrolidine-2,3-quinone] returned an IC50 greater than 66.7 µM.

`O=C1C(=O)N(c2ccc(F)cc2)C(c2ccc(Br)cc2)C1C(=O)c1ccccc1` (centres undefined) [(4Z)-5-(4-bromophenyl)-1-(4-fluorophenyl)-4-[hydroxy(phenyl)methylene]pyrrolidine-2,3-quinone] returned an IC50 greater than 66.7 µM.

With `COc1ccc(OC)c(C2C(C(=O)c3ccccc3)C(=O)C(=O)N2c2cccnc2)c1` (centres undefined) [(4E)-5-(2,5-dimethoxyphenyl)-4-[hydroxy(phenyl)methylene]-1-(3-pyridyl)pyrrolidine-2,3-quinone], the IC50 is greater than 66.7 µM.
